{
  "source": "paper PMC4982760",
  "about": "“Small-molecule inhibitors identify the RAD52-ssDNA interaction as critical for recovery from replication stress and for survival of BRCA2 deficient cells” (eLife, 2016)",
  "key": {"RAD52-ssDNA interaction": {"target": "T1, RAD52-ssDNA interaction (Homo sapiens, UniProt P43351)", "T1 construct": "made in house", "T1 sequence (P43351 1-418)": "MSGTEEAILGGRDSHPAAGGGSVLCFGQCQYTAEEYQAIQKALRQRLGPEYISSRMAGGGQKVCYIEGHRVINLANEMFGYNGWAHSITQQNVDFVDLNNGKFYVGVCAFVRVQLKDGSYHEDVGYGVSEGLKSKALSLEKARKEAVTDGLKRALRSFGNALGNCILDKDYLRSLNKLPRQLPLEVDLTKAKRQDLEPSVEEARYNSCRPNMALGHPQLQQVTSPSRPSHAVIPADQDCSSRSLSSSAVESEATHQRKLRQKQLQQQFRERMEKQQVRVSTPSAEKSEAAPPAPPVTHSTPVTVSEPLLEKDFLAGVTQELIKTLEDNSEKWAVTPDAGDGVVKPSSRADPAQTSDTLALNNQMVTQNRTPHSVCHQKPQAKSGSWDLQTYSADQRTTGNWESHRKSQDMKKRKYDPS", "assay": "FRET-based ssDNA binding and wrapping assay (RAD52-Cy3-dT30-Cy5 complex)", "details": "1 nM Cy3-dT30-Cy5, 8 nM RAD52, 25°C; read-out: IC50 (DNA binding), ssDNA", "procedure": "We titrated increasing amounts of each compound into a cuvette containing preformed stoichiometric RAD52-Cy3-dT30-Cy5 complexes (1 nM Cy3-dT30-Cy5 and 8 nM RAD52). […] At each concentration of the compound, the FRET signal was adjusted for the change in Cy3 and Cy5 fluorescence in the presence of the compound, but in the absence of protein.\nFRET-based ssDNA binding, dsDNA binding, and annealing assays were carried out as previously described ([Grimme et al., 2010]; [Grimme and Spies, 2011]) using Cary Eclipse spectrofluorimeter (Varian) at 25°C in buffer containing 30 mM Tris-Acetate pH7.5, 1 mM DTT, and 0.1 mg/mL BSA. Cy3 dye was excited at 530 nm and its emission was monitored at 565 nm. Emission of Cy5 acceptor fluorophore excited through the energy transfer from Cy3 donor is monitored at 660 nm simultaneously with emission of Cy3 dye. Both the excitation and the emission slit widths were set to 10 nm.\nAll experiments were performed in triplicates, and the data are shown as averages and standard deviations for three independent measurements. To remove possible experimental artifacts associated with chromogenic or fluorogenic compounds, as well as with the compounds that may quench or enhance Cy3 or Cy5 fluorescence, we also performed control titrations whereby we titrated each compound into 1 nM Cy3-dT30-Cy5 in the absence of RAD52. For each compound concentration we subtracted the difference in the FRET signal in the presence and absence of the compound from the respective FRET signal in the presence of RAD52. The FRET signal corrected for the compound fluorescence was calculated using the equation: FRETapp=4.2∗ICy5/4.2∗ICy5+ 1.7∗ICy3\nas previously described ([Grimme et al., 2010]; [Grimme and Spies, 2011]) and plotted as a function of compound concentration and fitted to the following inhibition model” FRET([small molecule])=FRET0−FRETmin/1+10^(LogIC50−Log([small molecule])∗HillSlope),\nwhere FRET0 is the initial FRET value of the RAD52-ssDNA complex in the absence of the compound and FRETmin is the FRET value at complete inhibition. FRET values were calculated as an average of three or more independent annealing reactions plotted against the concentration of the compound. Inhibition of the RAD52-dsDNA interaction was assayed in a similar experiments, except the stoichiometric complexes containing 1 nM molecules of Cy3-Oligo28-Cy5 duplex DNA and 10 nM RAD52."}, "[1]": {"target": "T2, RAD52-RPA-Cy3-dT30-Cy5 complex (Homo sapiens, UniProt P43351)", "T2 construct": "made in house", "T2 sequence (P27694 whole entry partner, one chain of several)": "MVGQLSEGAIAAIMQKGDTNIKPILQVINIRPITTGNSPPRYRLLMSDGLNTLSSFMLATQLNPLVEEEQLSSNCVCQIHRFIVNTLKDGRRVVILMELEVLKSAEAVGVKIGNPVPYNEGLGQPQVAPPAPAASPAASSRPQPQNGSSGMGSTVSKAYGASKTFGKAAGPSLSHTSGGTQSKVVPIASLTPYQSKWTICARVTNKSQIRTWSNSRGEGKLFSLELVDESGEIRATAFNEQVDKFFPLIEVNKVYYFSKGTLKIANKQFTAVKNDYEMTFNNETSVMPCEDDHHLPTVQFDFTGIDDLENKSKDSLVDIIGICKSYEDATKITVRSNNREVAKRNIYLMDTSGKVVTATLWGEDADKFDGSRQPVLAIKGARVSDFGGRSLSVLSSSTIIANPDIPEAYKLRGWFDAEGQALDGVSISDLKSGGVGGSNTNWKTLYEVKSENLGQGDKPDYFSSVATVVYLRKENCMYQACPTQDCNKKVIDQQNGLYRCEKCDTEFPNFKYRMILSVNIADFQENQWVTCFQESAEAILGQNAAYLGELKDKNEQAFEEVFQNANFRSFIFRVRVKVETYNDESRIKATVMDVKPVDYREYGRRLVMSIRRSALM", "T2 sequence (P15927 whole entry partner, one chain of several)": "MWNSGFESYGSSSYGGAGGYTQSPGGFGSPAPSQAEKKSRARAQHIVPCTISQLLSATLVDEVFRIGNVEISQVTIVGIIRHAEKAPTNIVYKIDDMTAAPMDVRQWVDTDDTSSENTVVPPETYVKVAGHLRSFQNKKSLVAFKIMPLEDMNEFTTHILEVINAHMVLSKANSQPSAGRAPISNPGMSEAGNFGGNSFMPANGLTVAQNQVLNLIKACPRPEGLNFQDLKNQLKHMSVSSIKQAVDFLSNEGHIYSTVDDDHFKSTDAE", "T2 sequence (P35244 whole entry partner, one chain of several)": "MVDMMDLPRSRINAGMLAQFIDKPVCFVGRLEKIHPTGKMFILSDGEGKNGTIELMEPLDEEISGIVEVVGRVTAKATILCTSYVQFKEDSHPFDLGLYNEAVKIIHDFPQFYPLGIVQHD", "assay": "FRET-based RAD52 binding/wrapping of RPA-coated ssDNA", "excerpt": "The RPA-ssDNA complex is a physiologically relevant substrate for the RAD52-mediated strand annealing. […] RPA binds ssDNA with high affinity and extends the ssDNA to its contour length.\n(§1) In all experiments, the FRET values for each data point were corrected for the effects of the compounds on the respective substrate in the absence of RAD52."}, "RAD52-dsDNA interaction": {"target": "T3, RAD52-dsDNA interaction (Homo sapiens, UniProt P43351)", "T3 construct": "made in house", "T3 sequence (P43351 1-418)": "T1 sequence (P43351 1-418)", "assay": "FRET-based RAD52-dsDNA binding assay", "details": "1 nM dsDNA, 10 nM RAD52"}, "RAD52": {"target": "T4, RAD52 (Homo sapiens, UniProt P43351)", "T4 construct": "made in house", "T4 sequence (P43351 1-418)": "T1 sequence (P43351 1-418)", "assay": "WaterLOGSY NMR binding to RAD52", "details": "20-40 μM compound, 3.3 μM RAD52", "excerpt": "(§2) To confirm that the selected compounds bind RAD52, we employed water-ligand observation with gradient spectroscopy (WaterLOGSY), an NMR technique, which is based on transfer of magnetization from bulk water to the protein-bound compound of interest ([Dalvit et al., 2001], [2000]). In WaterLOGSY spectrum, if a compound binds to a protein, the compound will receive negative nuclear Overhauser effects (NOEs) due to the slow tumbling of the protein-compound complex, leading to a positive WaterLOGSY peak. […] Similarly, the binding of ‘6’to RAD52 is evident from the positive WaterLOGSY peaks that are clearly detected for this compound (Figure 3a).\n(§3) Compound binding to RAD52 and RPA proteins was analyzed using water-ligand observation with gradient spectroscopy (WaterLOGSY) NMR experiments ([Dalvit et al., 2001], [2000]). The WaterLOGSY spectra of compounds in the presence of RAD52 or RPA were acquired using a water NOE mixing time of 1 s and a T2 relaxation filter of 50 ms just before data acquisition to suppress the broad signals derived from protein. The protein buffer used in the experiments contains 10 mM Tris-d11, 75 mM KCl, 0.25 mM EDTA, pH 7.5, and 10% D20. All NMR data were acquired on a Bruker Avance II 800 MHz NMR spectrometer equipped with a sensitive cryoprobe and recorded at 25°C. The ^1H chemical shifts were referenced to 2,2-dimethyl-2-silapentane-5-sulfonate (DSS). NMR spectra were processed using NMR Pipe ([Delaglio et al., 1995]) and analysed using NMR View ([Johnson and Blevins, 1994])."}, "RPA": {"target": "T5, RPA (Homo sapiens, UniProt P15927+P27694+P35244)", "T5 construct": "made in house", "T5 sequence (P27694 whole entry)": "as the sequence (P27694 whole entry partner, one chain of several) above", "T5 sequence (P15927 whole entry)": "as the sequence (P15927 whole entry partner, one chain of several) above", "T5 sequence (P35244 whole entry)": "as the sequence (P35244 whole entry partner, one chain of several) above", "assay": "WaterLOGSY NMR binding to RPA", "details": "20-40 μM compound, 3.3 μM RPA", "excerpt": "as §2, §3"}, "RPA-ssDNA interaction": {"target": "T6, RPA-ssDNA interaction (Homo sapiens, UniProt P15927+P27694+P35244)", "T6 construct": "made in house", "T6 sequence (P27694 whole entry)": "as the sequence (P27694 whole entry partner, one chain of several) above", "T6 sequence (P15927 whole entry)": "as the sequence (P15927 whole entry partner, one chain of several) above", "T6 sequence (P35244 whole entry)": "as the sequence (P35244 whole entry partner, one chain of several) above", "assay": "FRET titration of the RPA-Cy3-dT30-Cy5 complex", "type": "binding", "details": "range of tested concentrations", "excerpt": "In the cell, ssDNA is typically found in complex with Replication protein A (RPA), the major eukaryotic ssDNA-binding protein essential for DNA replication, repair and recombination ([Wold, 1997]; [Oakley and Patrick, 2010]; [Chen and Wold, 2014]). The RPA-ssDNA complex is a physiologically relevant substrate for the RAD52-mediated strand annealing. […] RPA binds ssDNA with high affinity and extends the ssDNA to its contour length. In our assays such an extension manifests as a distinct FRET state of ~0.3, which is readily distinguished from a FRET state of ~0.48 of free Cy3-dT30-Cy5 ssDNA, as well as ~0.63 FRET of the stoichiometric ssDNA-RPA-RAD52 complex (see Figure 2—figure supplement 1 and ([Grimme and Spies, 2011]) for details). […] Both, however, inhibited the RAD52 binding to and wrapping of RPA-coated ssDNA with IC50 values identical to those determined without RPA (Figure 2e and Figure 3e).\nas §1"}},
  "data": [
    {"smiles": "O=C(O[C@@H]1O[C@@H]2COC(=O)c3cc(O)c(O)c(O)c3-c3c(cc(O)c(O)c3O)C(=O)O[C@H]([C@H]1O)[C@@H]2O)c1cc(O)c(O)c(O)c1", "note": "[NP-004255, corilagin]", "values": [
      {"measurement": "IC50", "setting": "RAD52-ssDNA interaction", "value": "1500 ± 200", "unit": "nM"},
      {"measurement": "IC50", "setting": "[1]", "value": "500 ± 100", "unit": "nM"},
      {"measurement": "effect on the RAD52-dsDNA interaction", "setting": "RAD52-dsDNA interaction", "value": "had no effect on the RAD52-dsDNA interaction"},
      {"measurement": "binding to RAD52 (WaterLOGSY)", "setting": "RAD52", "value": "physically interacts with RAD52"},
      {"measurement": "binding to RPA (WaterLOGSY)", "setting": "RPA", "value": "also bound RPA"},
      {"measurement": "effect on the RPA-ssDNA interaction", "setting": "RPA-ssDNA interaction", "value": "did not affect the RPA-ssDNA complex"}
    ]}
  ]
}
